Laboratory results reported in article PMC5608804, “Stepwise Evolution Improves Identification of Diverse Peptides Binding to a Protein Target” (Scientific Reports, 2017).

Target: T1, streptavidin (Streptomyces avidinii, UniProt P22629)
T1 construct: purchased GE Healthcare (Little Chalfont, UK)
Assay: Cy5-streptavidin binding on HotSpot discovery array, 5-mer L-peptide library
Details: for S/B: signal to background ratio
From the text: To identify hotspot sequences that bind to streptavidin (SA), we bound Cy5-SA to an array library of 2,476,099 5-mer L-peptides synthesized with 19 of 20 natural amino acids (excluding cysteine). The fluorescence signal intensity was aggregated across three independently synthesized arrays; then the 2,047 peptides with a signal-to-background ratio (S/B) >4 were selected. The data was further filtered to select 1,100 peptides for which signal intensities were highly correlated on all 3 arrays (the percentage of mean deviation to mean was <10%, see Supplementary dataset Table 2A). Most selected sequences (1,019 of 1,100) contained HP, PQ, or PM sequences: their presence would be expected in the well-known HPQ and HPM streptavidin binders[13]–[18].
The comprehensive peptide library included 2,476,099 5-mer peptides synthesized in a single copy with 19 of 20 L- or D-amino acids (excluding cysteine). Libraries were flanked on both N- and C-termini by linkers of 1 or 3 amino acids using a 3:1 glycine-serine mixture.
Cy5™-streptavidin (Cy5-SA) was purchased from GE Healthcare (Little Chalfont, UK). Freshly deprotected arrays were used in each experiment. Streptavidin binding to all arrays was performed with 0.5 µg/ml Cy5-SA either in binding buffer containing 10 mM Tris-HCl (pH 7.4), 1% alkali-soluble casein (EMD Millipore), 0.05% Tween-20 or in 10 mM Tris-HCl (pH 7.4), 4% BSA (Roche, Basel, Switzerland), 0.05% Tween-20 in a 30 mL PAP Jar container (Evergreen Scientific, Vernon, CA) overnight at 4° C. After incubation, arrays were washed in 20 mM Tris-HCl (pH 7.8), 0.2 M NaCl, 1% SDS or 1X TBS (pH 7.4) for 30 sec followed by a 1 min wash in water, and then dried by spinning in a microcentrifuge equipped with an array holder.
Cy5 fluorescence intensity of the arrays was measured with an MS200 scanner (Roche NimbleGen, Madison, WI) at resolution 2 µm, wavelength 635 nm, gain 25%, and laser intensity 100%. Cy5 signal intensities were extracted using Image Extraction Software (Roche NimbleGen). Data pre-processing, normalization, and statistical tests were performed using the language R. Data visualization and analysis was performed with the Spotfire 6.5.0 (Tibco, Boston, MA) software platform. Distance analysis and principle component analysis of distance matrices were performed with the R package PEPLIB[19].

[1] = 5-mer L-peptide library array, Cy5-streptavidin, from the average of three arrays
[2] = 5-mer L-peptide library array, Cy5-streptavidin, from average of three arrays
[3] = 5-mer L-peptide library array, Cy5-streptavidin
[4] = 5-mer L-peptide library, from the average of three arrays
[5] = average of three arrays, L-peptide 5-mer library

T1 sequence (P22629 25-183): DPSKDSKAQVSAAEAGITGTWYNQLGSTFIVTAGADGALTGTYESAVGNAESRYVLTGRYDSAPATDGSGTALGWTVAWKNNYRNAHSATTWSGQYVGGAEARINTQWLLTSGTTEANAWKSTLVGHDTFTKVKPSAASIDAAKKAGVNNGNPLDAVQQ

QHPQV
S/B (signal to background ratio) [1]: 84.6

RHHPQ
S/B (signal to background ratio) [2]: 148.9

YWHPQ
S/B (signal to background ratio) [2]: 148.0

PHPMN
S/B [3]: 14.3

LHPMY
S/B [3]: 7.0

FHPQT
S/B (signal to background ratio) [2]: 34.8

ADHPQ
S/B (signal to background ratio) [1]: 69.7

HPWRT
S/B (signal to background ratio) [4]: 4.4

HPMQS
S/B (signal to background ratio) [4]: 4.9

IMHPM
S/B (signal to background ratio) [2]: 35.1

WRHPQ
S/B (signal to background ratio) [2]: 235.3

NWDVI [L-amino acid 5-mer array peptide]
S/B (signal to background ratio) [5]: 5.3 | S/B [3]: 5.3

HPMGL
S/B [3]: 9.0

HPRWG
S/B (signal to background ratio) [4]: 4.2

DHPMY
S/B [3]: 6.4

THPMK
S/B (signal to background ratio) [4]: 4.1

DHPQG
S/B (signal to background ratio) [1]: 77.3

MQHPQ
S/B (signal to background ratio) [2]: 157.5

ITHPM
S/B (signal to background ratio) [2]: 41.5

FFMIM [L-amino acid 5-mer array peptide]
S/B (signal to background ratio) [4]: 5.1 | S/B (signal to background ratio) [5]: 5.1

LTHPM
S/B (signal to background ratio) [1]: 64.2

RHPQV
S/B (signal to background ratio) [1]: 94.3

GHPMY
S/B [3]: 11.0

AGHPQ
S/B (signal to background ratio) [2]: 137.1

LQHPM
S/B (signal to background ratio) [1]: 62.8

YVHPQ
S/B (signal to background ratio) [2]: 145.8

EHPQN
S/B (signal to background ratio) [1]: 71.2

HPQLY
S/B (signal to background ratio) [4]: 4.1

FDDFL [L-amino acid 5-mer array peptide]
S/B (signal to background ratio) [4]: 5.0 | S/B (signal to background ratio) [5]: 5.0

WTHPQ
S/B (signal to background ratio) [2]: 181.7

AWHPQ
S/B (signal to background ratio) [2]: 172.2

YNHPQ
S/B (signal to background ratio) [2]: 193.0

EWHPM
S/B (signal to background ratio) [2]: 38.1

HPMVS
S/B [3]: 8.8

MWHPQ
S/B (signal to background ratio) [2]: 192.7

HPQND
S/B (signal to background ratio) [2]: 53.5

YHPQF
S/B (signal to background ratio) [1]: 105.0

SGHPM
S/B (signal to background ratio) [2]: 54.4

QHPMI
S/B [3]: 6.4

NWDQV [L-amino acid 5-mer array peptide]
S/B (signal to background ratio) [4]: 4.6 | S/B (signal to background ratio) [5]: 4.6

AHPMS
S/B (signal to background ratio) [2]: 27.6

EQHPQ
S/B (signal to background ratio) [2]: 43.8

RHPMR
S/B (signal to background ratio) [4]: 4.2

HPMSR
S/B (signal to background ratio) [4]: 4.4

HPQVG
S/B (signal to background ratio) [1]: 114.3

QPHPQ
S/B (signal to background ratio) [1]: 90.3

HHPQL
S/B [3]: 5.7

AHPMF
S/B [3]: 10.8

IHPQG
S/B (signal to background ratio) [1]: 85.9

THPQY
S/B (signal to background ratio) [2]: 30.1

MRHPM
S/B (signal to background ratio) [1]: 60.6

HPADF
S/B [3]: 6.3

WHPDW
S/B [3]: 5.3

FHPQW
S/B (signal to background ratio) [2]: 22.2

DYHPQ
S/B (signal to background ratio) [1]: 103.8

IHPQD
S/B [3]: 10.4

HPQRV
S/B [3]: 5.3

ALHPQ
S/B (signal to background ratio) [2]: 123.6

THHPM
S/B (signal to background ratio) [1]: 58.0

EHPMY
S/B (signal to background ratio) [4]: 4.5

NHPQK
S/B [3]: 14.8

FDKWL [L-amino acid 5-mer array peptide]
S/B (signal to background ratio) [5]: 15.9 | S/B [3]: 15.9

HPMQH
S/B (signal to background ratio) [4]: 4.5

LGSFH [L-amino acid 5-mer array peptide]
S/B (signal to background ratio) [5]: 8.7 | S/B [3]: 8.7

RMHPQ
S/B (signal to background ratio) [2]: 119.1

FVHPQ
S/B (signal to background ratio) [2]: 150.1

VHPMF
S/B [3]: 9.9

FHPMG
S/B (signal to background ratio) [1]: 59.2

MPHPM
S/B (signal to background ratio) [1]: 58.7

NWDEW [L-amino acid 5-mer array peptide]
S/B (signal to background ratio) [5]: 7.8 | S/B [3]: 7.8

MHPMI
S/B (signal to background ratio) [4]: 4.7

IRHPM
S/B (signal to background ratio) [1]: 63.6

SLHPM
S/B (signal to background ratio) [2]: 46.4

QFHPQ
S/B (signal to background ratio) [2]: 180.1

HPQFA
S/B (signal to background ratio) [1]: 113.5

HPTPW
S/B [3]: 15.1

ILHPQ
S/B (signal to background ratio) [2]: 121.2

HPQLG
S/B [3]: 9.1

FHPQG
S/B (signal to background ratio) [2]: 146.3

QHPQM
S/B (signal to background ratio) [2]: 40.0

GHPMM
S/B [3]: 11.7

KHPQA
S/B (signal to background ratio) [1]: 92.8

THPQT
S/B [3]: 11.0

QNHPM
S/B (signal to background ratio) [1]: 58.4

RNHPQ
S/B (signal to background ratio) [2]: 136.2

LGHPM
S/B (signal to background ratio) [1]: 76.1

HPQVQ
S/B (signal to background ratio) [2]: 49.2

FHPMV
S/B (signal to background ratio) [2]: 27.2

NHPQN
S/B (signal to background ratio) [2]: 138.1

PMHPQ
S/B (signal to background ratio) [2]: 135.3

WHPQS
S/B (signal to background ratio) [2]: 129.8

GMHPQ
S/B (signal to background ratio) [2]: 126.3

YHPMA
S/B (signal to background ratio) [1]: 80.6

NHHPQ
S/B (signal to background ratio) [2]: 128.2

QHPMY
S/B [3]: 11.3

RRHPQ
S/B (signal to background ratio) [1]: 103.0

PQHPQ
S/B (signal to background ratio) [2]: 136.1

LHPQH
S/B (signal to background ratio) [2]: 38.5

MDHPQ
S/B (signal to background ratio) [1]: 88.9

NHPQM
S/B (signal to background ratio) [2]: 39.3

EAHPM
S/B [3]: 16.5

SIHPQ
S/B (signal to background ratio) [1]: 118.3

QEHPQ
S/B (signal to background ratio) [1]: 63.4

HPMNA
S/B [3]: 17.1

PPHPQ
S/B (signal to background ratio) [2]: 150.0

HPMMA
S/B [3]: 5.3

SHPQA
S/B (signal to background ratio) [2]: 137.0

NDHPM
S/B (signal to background ratio) [2]: 32.0

TMHPQ
S/B (signal to background ratio) [2]: 120.6

NQHPQ
S/B (signal to background ratio) [1]: 107.5

PHPQI
S/B (signal to background ratio) [2]: 22.5

YQHPQ
S/B (signal to background ratio) [2]: 172.3

NWDEI [L-amino acid 5-mer array peptide]
S/B (signal to background ratio) [5]: 7.3 | S/B [3]: 7.3

HPQPD
S/B [3]: 6.3

WHHPM
S/B (signal to background ratio) [2]: 129.3

RHPQE
S/B [3]: 8.3

YPHPQ
S/B (signal to background ratio) [2]: 190.5

HPQYQ
S/B [3]: 15.5

LAVYH [L-amino acid 5-mer array peptide]
S/B (signal to background ratio) [2]: 27.0 | S/B (signal to background ratio) [5]: 27.0

EHHPM
S/B (signal to background ratio) [2]: 31.0

SHPQL
S/B (signal to background ratio) [4]: 4.4

MFHPM
S/B (signal to background ratio) [1]: 85.4

FHHPM
S/B (signal to background ratio) [1]: 95.4

MMHPM
S/B (signal to background ratio) [2]: 48.8

KHPQF
S/B (signal to background ratio) [2]: 52.9

FTHPQ
S/B (signal to background ratio) [2]: 177.7

WHPQG
S/B (signal to background ratio) [2]: 184.5

LAMFH [L-amino acid 5-mer array peptide]
S/B (signal to background ratio) [2]: 21.1 | S/B (signal to background ratio) [5]: 21.1

MANHF [L-amino acid 5-mer array peptide]
S/B (signal to background ratio) [5]: 6.0 | S/B [3]: 6.0

YQHPM
S/B (signal to background ratio) [1]: 84.6

YRGHP
S/B [3]: 5.3

HPMFW
S/B [3]: 6.5

HPQYR
S/B [3]: 7.0

KHPQV
S/B (signal to background ratio) [2]: 33.0

HPQMG
S/B (signal to background ratio) [1]: 59.2

YHPQY
S/B (signal to background ratio) [2]: 49.3

GAHPQ
S/B (signal to background ratio) [2]: 136.7

YYHPQ
S/B (signal to background ratio) [2]: 190.0

GHPQW
S/B [3]: 18.1

HPMGT
S/B [3]: 12.0

HPMAQ
S/B [3]: 7.2

GLHPQ
S/B (signal to background ratio) [2]: 132.8

PSWAH [L-amino acid 5-mer array peptide]
S/B (signal to background ratio) [5]: 7.3 | S/B [3]: 7.3

NKHPQ
S/B (signal to background ratio) [1]: 85.9

IWHPQ
S/B (signal to background ratio) [2]: 174.8

AMHPM
S/B (signal to background ratio) [2]: 42.8

YLHPQ
S/B (signal to background ratio) [2]: 152.2

HPQHG
S/B (signal to background ratio) [2]: 57.1

FYHPQ
S/B (signal to background ratio) [2]: 202.7

AHPQM
S/B (signal to background ratio) [2]: 32.6

LAHPM
S/B (signal to background ratio) [1]: 62.9

RHPMQ
S/B [3]: 16.4

LHHPQ
S/B (signal to background ratio) [2]: 188.8

SNHPM
S/B (signal to background ratio) [2]: 54.1

HPQTA
S/B [3]: 10.4

WHPQV
S/B (signal to background ratio) [2]: 137.6

SRHPM
S/B (signal to background ratio) [1]: 57.8

SGHPQ
S/B (signal to background ratio) [2]: 128.5

LWHPQ
S/B (signal to background ratio) [2]: 177.2

VWHPQ
S/B (signal to background ratio) [2]: 171.7

SHPQV
S/B (signal to background ratio) [1]: 98.7

IGHPM
S/B (signal to background ratio) [1]: 72.3

HPQGS
S/B (signal to background ratio) [1]: 105.2

TFHPM
S/B (signal to background ratio) [2]: 52.6

FHPQP
S/B [3]: 6.3

DHPQT
S/B [3]: 8.9
